Laboratory results: publication PMC10947119 (Angewandte Chemie (International Ed. in English), 2023)
Like-named read-outs stand apart in the source and are kept apart here.

Tests used:
[1] = tested on: coaD CRISPRi knockdown Mtb mutant (Mtb H37RvMA); assay type: cell-based, Mycobacterium tuberculosis
[2] = tested on: coaBC CRISPRi knockdown Mtb mutant (Mtb H37RvMA); assay type: cell-based, Mycobacterium tuberculosis; details: highest ATc concentrations compatible with uninhibited proliferation

O=C(O)c1cnn(-c2ccccc2)c1OCCCc1c[nH]c2ccccc12 [compound 20]
minimum inhibitory concentration, MIC [1]: ≈ 60 μM
Effect of ATc (coaD silencing) on susceptibility ([1]; 1.6 and 0.8 ng/mL ATc): enhanced in an ATc concentration‐dependent manner
Effect of ATc (coaBC silencing) on susceptibility [2]: little‐to‐no effect

CO[C@H]1/C=C/O[C@@]2(C)Oc3c(C)c(O)c4c(O)c(c(/C=N/N5CCN(C)CC5)c(O)c4c3C2=O)NC(=O)/C(C)=C\C=C\[C@H](C)[C@H](O)[C@@H](C)[C@@H](O)[C@@H](C)[C@H](OC(C)=O)[C@@H]1C [rifampicin, reference compound]
Effect of ATc (coaD silencing) on susceptibility [1]: did not render the coaD CRISPRi Mtb mutant more susceptible

NNC(=O)c1ccncc1 [isoniazid, reference compound]
Effect of ATc (coaD silencing) on susceptibility [1]: did not render the coaD CRISPRi Mtb mutant more susceptible
